# Measurements published in PubChem BioAssay (NCI).
#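 GI50 is the concentration that inhibits growth by half. TGI: total growth inhibition.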
# Experiments:
# Assay in all cases: growth of human tumour cells (NCI), 384-well format
# RXF 393 renal = test system: RXF 393 renal
# ACHN renal = test system: ACHN renal
# NCI/ADR-RES ovarian = test system: NCI/ADR-RES ovarian
# SF-268 CNS = test system: SF-268 CNS
# MDA-MB-435 melanoma = test system: MDA-MB-435 melanoma
# OVCAR-8 ovarian = test system: OVCAR-8 ovarian
# SF-295 CNS = test system: SF-295 CNS
# SF-539 CNS = test system: SF-539 CNS
# SK-MEL-28 melanoma = test system: SK-MEL-28 melanoma
# RPMI-8226 leukemia = test system: RPMI-8226 leukemia
# HL-60(TB) leukemia = test system: HL-60(TB) leukemia
# MALME-3M melanoma = test system: MALME-3M melanoma
# EKVX NSCLC = test system: EKVX NSCLC
smiles,measurement,setting,value
C[C@@H](O)[C@H](NC(=O)N[C@@H](CC(N)=O)c1nc([C@@H](N)CO)no1)C(=O)O,GI50,RXF 393 renal,> 100 µM
same,TGI,RXF 393 renal,> 100 µM
same,GI50,ACHN renal,> 100 µM
same,TGI,ACHN renal,> 100 µM
same,GI50,NCI/ADR-RES ovarian,> 100 µM
same,TGI,NCI/ADR-RES ovarian,> 100 µM
same,GI50,SF-268 CNS,> 100 µM
same,TGI,SF-268 CNS,> 100 µM
same,GI50,MDA-MB-435 melanoma,> 100 µM
same,TGI,MDA-MB-435 melanoma,> 100 µM
same,GI50,OVCAR-8 ovarian,> 100 µM
same,TGI,OVCAR-8 ovarian,> 100 µM
same,GI50,SF-295 CNS,> 100 µM
same,TGI,SF-295 CNS,> 100 µM
same,GI50,SF-539 CNS,> 100 µM
same,TGI,SF-539 CNS,> 100 µM
same,GI50,SK-MEL-28 melanoma,> 100 µM
same,TGI,SK-MEL-28 melanoma,> 100 µM
same,GI50,RPMI-8226 leukemia,> 100 µM
same,TGI,RPMI-8226 leukemia,> 100 µM
same,GI50,HL-60(TB) leukemia,> 100 µM
same,TGI,HL-60(TB) leukemia,> 100 µM
same,GI50,MALME-3M melanoma,> 100 µM
same,TGI,MALME-3M melanoma,> 100 µM
same,GI50,EKVX NSCLC,> 100 µM
same,TGI,EKVX NSCLC,> 100 µM
